Reference: patent US20220241308A1, “NEURONAL FUNCTION MODULATING AGENT” (University of Tsukuba, priority 2019, published 2022)

Tests used:
Format in all cases: cell-based
[1] = tested on: CASP3 (caspase-3); test: Gene expression experiment (real-time PCR) in SH-SY5Y cells: CASP3; conditions: 12.56 μM, amyloid β protein-treated cells, 24 h; compared to “Aβ”
Protocol: (§1) SH-SY5Y cells were seeded in 100 mm-cell dishes (BD Biocoat) at concentrations of 3.7×10^5 cells/mL (10 mL/dish) and cultured for 24 h at 37° C. and 5% CO2. Culture medium used was F12/DMEM (Gibco) supplemented with 1% non-essential amino acids (Gibco), 15% FBS (Bio West), and 1% penicillin/streptomycin (Lonza). After 24 h, the culture medium was completely removed with an aspirator, 10 mL of culture medium Opti-MEM(Gibco) was added to each dish, and the cells were cultured for 24 h at 37° C. and 5% CO2. RNA was extracted from the culture cells and analyzed for the expression of genes described below by real-time PCR (designated as “Control” in FIGS. 2 to 8).
(§2) RNA extraction was performed using ISOGEN Reagent (Nippon Gene Co., Ltd.) in accordance with the protocol recommended by Nippo n Gene Co., Ltd. (see URL: https://www.nippongene.com/siyaku/product/extraction/tds/tds_isogen-rna-dna-protein.pdf). Real-time PCR was performed according to the protocol recommended by Thermo Fisher Scientific using a reagent kit for TaqMan Real-Time PCR (Thermo Fisher Scientific) (see URL: https://assets.thermofisher.com/TFS-Assets/LSG/manuals/4304449_TaqManPCRMM_UG.pdf).
(§3) 24 h after seeding 100 mm-cell dishes (BD Biocoat) with SH-SY5Y cells, the culture medium was completely removed with an aspirator, amyloid β protein (Beta-Amyloid 1-42, AnaSpec) was mixed with Opti-MEM (Gibco) so that the final concentration was 5 μM, 10 mL of the mixture was added to each dish, the cells were cultured for 24 h at 37° C. and 5% CO2, and RNA was extracted. Except for performing the procedure described above, gene expression was analyzed as described above (designated as “Aβ” in FIGS. 2 to 8).
(§4) 24 h after seeding 100 mm-cell dishes (BD Biocoat) with SH-SY5Y cells, the culture medium was completely removed with an aspirator, Sample 1 was mixed with culture medium Opti-MEM(Gibco) so that the final concentration was 12.56 μM, 9,990 μL of the mixture was added to each dish and allowed to stand for 10 min, amyloid β protein (Beta-Amyloid 1-42, AnaSpec) was mixed with Opti-MEM (Gibco) so that the final concentration was […], 10 μL of the mixture was added to each well, the cells were cultured for 24 h at 37° C. and 5% CO2, and RNA was extracted. Except for performing the procedure described above, Gene expression was analyzed as described above (designated as “Aβ+M3,5G” in FIGS. 2 to 8).
(§5) Except that Sample 2 was used instead of Sample 1, gene expression was analyzed as described above (designated as “Aβ+M” in FIGS. 2 to 8).
(§6) Except that Sample 3 was used instead of Sample 1, gene expression was analyzed as described above (designated as “Aβ+M3G” in FIGS. 2 to 8).
(§7) 24 h after seeding 100 mm-cell dishes (BD Biocoat) with SH-SY5Y cells, the culture medium was completely removed with an aspirator, 10 mL of culture medium Opti-MEM(Gibco) mixed with Sample 1 was added to each dish, the cells were cultured for 24 h at 37° C. and 5% CO2, and RNA was extracted. Except for performing the procedure described above, gene expression was analyzed as described above (designated as “M3,5G” in FIGS. 2 to 8).

[2] = tested on: MAPK14 (mitogen-activated protein kinase 14); test: Gene expression experiment (real-time PCR) in SH-SY5Y cells: MAPK14; conditions: 12.56 μM, amyloid β protein-treated cells, 24 h; compared to “Aβ”
Protocol: as §1, §2, §3, §4, §5
(§8) Except that Sample 3 was used instead of Sample 1, gene expression was analyzed as described above (designated as “Aβ+M3G” in FIGS. 2 to 8). […]

[3] = tested on: AKT1 (AKT serine/threonine kinase 1); test: Gene expression experiment (real-time PCR) in SH-SY5Y cells: AKT1; conditions: 12.56 μM, amyloid β protein-treated cells, 24 h; compared to “Aβ”
Protocol: as §1, §2, §3, §4, §5, §6, §7

[4] = tested on: PI3KCA (phosphatidylinositol-4,5-bisphosphate 3-kinase catalyst subunit α); test: Gene expression experiment (real-time PCR) in SH-SY5Y cells: PI3KCA; conditions: 12.56 μM, amyloid β protein-treated cells, 24 h; compared to “Aβ”
Protocol: as §1, §2, §3, §4, §5, §6, §7

[5] = tested on: SH-SY5Y cells; test: Cell survival experiment (MTT), cell death induced by amyloid β protein; conditions: compound 12.56 μM, 72 h, compared to “Aβ”
Protocol: Each well of a 96-well plate (BD Biocoat) was seeded with SH-SY5Y cells (model of neuronal cells, ATCC) at a concentration of 2×10^5 cells/mL (100 μL/well) and the cells were cultured at 37° C. and 5% CO2 for 24 h. Culture medium used was F12/DMEM (Gibco) supplemented with 1% non-essential amino acids (Gibco), 15% FBS (Bio West), and 1% penicillin/streptomycin (Lonza).
After 24 h, the culture medium was completely removed with an aspirator, 100 μL of culture medium Opti-MEM (Gibco) was added to each well, and the cells were cultured at 37° C. and 5% CO2 for 24 h. […]
Absorbance at 570 nm was measured on a microplate reader (Sumitomo Dainippon Pharma) to measure the MTT formazan production to calculate % relative cell survival (designated as “Control” in FIG. 1).
24 h after seeding a 96-well plate (BD Biocoat) with SH-SY5Y cells, the culture medium was completely removed with an aspirator, amyloid β protein (Beta-Amyloid 1-42, AnaSpec) was mixed with Opti-MEM (Gibco) so that the final concentration was 15 μM, 100 μL of the mixture was added to each well, and the cells were cultured at 37° C. and 5% CO2 for 72 h to induce cell death. Except for performing the procedure described above, the MTT formazan production was measured as described above to calculate % relative cell survival (designated as “Aβ” in FIG. 1). […]

[6] = tested on: MAPK8 (mitogen-activated protein kinase 8); test: Gene expression experiment (real-time PCR) in SH-SY5Y cells: MAPK8; conditions: 12.56 μM, amyloid β protein-treated cells, 24 h; compared to “Aβ”
Protocol: as §1, §2, §3, §4, §5, §8

[7] = tested on: PARP1 (poly(ADP-ribose) polymerase 1); test: Gene expression experiment (real-time PCR) in SH-SY5Y cells: PARP1; conditions: 12.56 μM, amyloid β protein-treated cells, 24 h; compared to “Aβ”
Protocol: as §1, §2, §3, §4, §5, §8

[8] = tested on: MAP2K4 (mitogen-activated protein kinase 4); test: Gene expression experiment (real-time PCR) in SH-SY5Y cells: MAP2K4; conditions: 12.56 μM, amyloid β protein-treated cells, 24 h; compared to “Aβ”
Protocol: as §1, §2, §3, §4, §5, §6, §7

Compound: COc1cc(-c2[o+]c3cc(O)cc(O)c3cc2O)cc(OC)c1O [malvidin, Malvidin chloride, reference compound]
- expression of CASP3 [1]: decrease
- expression of MAPK14 [2]: increase
- expression of AKT1 [3]: increase
- expression of PI3KCA [4]: increase
- % relative cell survival [5]: Inhibition of cell death was also confirmed
- expression of MAPK8 [6]: increase
- expression of PARP1 [7]: increase
- expression of MAP2K4 [8]: increase

Compound: COc1cc(-c2[o+]c3cc(O)cc(O)c3cc2O[C@@H]2O[C@H](CO)[C@@H](O)[C@H](O)[C@H]2O)cc(OC)c1O.[Cl-] [malvidin-3-glucoside, Malvidin-3-glucoside chloride, reference compound]
- expression of MAPK14 [2]: increase
- expression of AKT1 [3]: increase
- expression of PI3KCA [4]: increase
- expression of PARP1 [7]: increase
- expression of MAP2K4 [8]: increase
